Here are results for two compounds from patent publication US9186391B2, “Cyclic peptide inhibitors of lysine-specific demethylase 1” (MUSC FOUNDATION FOR RESEARCH DEVELOPMENT, priority 2013, dated 2015).

Read-outs that look alike come from different tables or passages of the source.

The subject of test [1] is Calu-6 lung tumor line. Put plainly: cells. In kind it is cell-based, human. The note with it: MTS assay, 72 hours, read-out: IC50 growth inhibition in Calu-6 cells.
Test [2] addresses T1, MAO-A (Homo sapiens, UniProt P21397).
T1 sequence (P21397 1-527): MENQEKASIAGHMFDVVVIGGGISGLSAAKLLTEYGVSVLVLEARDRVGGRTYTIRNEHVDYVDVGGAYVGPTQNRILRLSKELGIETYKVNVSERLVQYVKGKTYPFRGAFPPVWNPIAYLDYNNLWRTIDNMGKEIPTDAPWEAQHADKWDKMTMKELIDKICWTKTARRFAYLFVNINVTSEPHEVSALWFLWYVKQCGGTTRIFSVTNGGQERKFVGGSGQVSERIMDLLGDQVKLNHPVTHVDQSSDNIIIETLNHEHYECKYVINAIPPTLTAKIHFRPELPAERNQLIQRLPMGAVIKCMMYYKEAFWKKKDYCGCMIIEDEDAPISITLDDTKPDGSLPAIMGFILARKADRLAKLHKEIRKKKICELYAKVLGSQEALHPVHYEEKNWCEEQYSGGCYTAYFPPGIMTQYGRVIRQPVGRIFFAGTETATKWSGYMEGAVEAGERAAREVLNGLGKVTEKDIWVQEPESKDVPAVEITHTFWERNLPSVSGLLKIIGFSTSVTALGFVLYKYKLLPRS
Put plainly: Inhibition of monoamine oxidase A in vitro. Type of test: biochemical. Conditions: read-out: IC50 for inhibition against MAO-A.
Excerpt: (§1) Each data point is the average of three determinations±standard error.

Test [3] addresses T2, MAO-B (Homo sapiens, UniProt P27338).
T2 sequence (P27338 1-520): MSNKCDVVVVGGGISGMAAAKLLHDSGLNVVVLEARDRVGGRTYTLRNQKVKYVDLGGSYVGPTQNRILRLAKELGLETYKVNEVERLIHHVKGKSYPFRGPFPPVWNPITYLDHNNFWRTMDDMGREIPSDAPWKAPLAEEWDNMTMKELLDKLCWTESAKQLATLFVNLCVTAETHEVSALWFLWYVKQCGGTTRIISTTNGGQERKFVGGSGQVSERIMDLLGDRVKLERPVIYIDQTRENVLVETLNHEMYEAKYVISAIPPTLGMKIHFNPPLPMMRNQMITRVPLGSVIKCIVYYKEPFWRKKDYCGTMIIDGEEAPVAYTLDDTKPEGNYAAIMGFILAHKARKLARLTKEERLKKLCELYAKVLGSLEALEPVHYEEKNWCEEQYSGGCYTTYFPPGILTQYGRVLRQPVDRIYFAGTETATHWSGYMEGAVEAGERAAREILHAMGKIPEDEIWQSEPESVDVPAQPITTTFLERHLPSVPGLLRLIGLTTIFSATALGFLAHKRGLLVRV
Put plainly: Inhibition of monoamine oxidase B in vitro. Type of test: biochemical. The note with it: read-out: IC50 for inhibition against MAO-B.
Excerpt: as §1

Test [4] deals with MCF-7 breast tumor line. Type of test: cell-based. Conditions: MTS assay, 72 hours; read-out: IC50 growth inhibition in MCF-7 cells.

Turning to `N=C(NCCCNCCCCCCCNCCCNC(=N)NC(=N)NCCC(c1ccccc1)c1ccccc1)NC(=N)NCCC(c1ccccc1)c1ccccc1` [compound 3, verlindamycin, reference compound], the IC50 in test [1] (Homo sapiens, Calu-6) came to 10.9 µM.
Regarding `CSCC[C@H](NC(=O)[C@@H](NC(=O)[C@H](CCCNC(=N)N)NC(=O)[C@H](C)N)[C@@H](C)O)C(=O)N[C@H]1CCCCNC(=O)CC[C@@H](C(=O)N[C@H](C(=O)NCC(=O)NCC(=O)N[C@@H](CCCCN)C(=O)N[C@@H](C)C(=O)N2CCC[C@H]2C(=O)N[C@@H](CCCNC(=N)N)C(=O)N[C@@H](CCCCN)C(=O)N[C@@H](CCC(N)=O)C(=O)N[C@@H](CC(C)C)C(=O)N[C@@H](C)C(N)=O)[C@@H](C)O)NC(=O)[C@H](CCCCN)NC(=O)[C@H](CCCNC(=N)N)NC(=O)[C@H](C)NC(=O)[C@H]([C@@H](C)O)NC1=O` [compound 11], the IC50 in test [2] is more than 100 µM; in test [3] it was more than 100 µM; in test [4] it was 157 µM; in test [1], 125 µM.
